Data taken from PubChem BioAssay AID2060901 (Molecular Pharmacology Branch, DTP, NCI, 2025).

Test system: 422866-222-R5-J1-PDC complex spheroids viability
Experiment: Anticancer human tumor 422866-222-R5-J1-PDC patient-derived pancreatic adenocarcinoma cell line growth inhibition [RAS]
Conditions: for IC50: curve of first compound; for viability, T/C: stronger effect = lower value
Text: RAS pathway inhibitors in Combinations in Complex Spheroids
A high-throughput screen of multi-cell type tumor spheroids was designed to identify active combinations of RAS pathway inhibitors and targeted small molecules. Complex spheroids include a stromal component modeled by human endothelial cells (HUVEC) and fibroblasts modeled by human mesenchymal stem cells (MSCs). The concentration ranges selected for each drug and investigational agent were based upon clinically achievable concentrations if the clinical Cmax of the agent was known.
Compounds. The drugs and investigational agents: abemaciclib (NSC768073), cobimetinib (NSC768068), divarasib (GDC6063, NSC841802), docetaxel (NSC628503), GDC-1971 (RLY-1971, NSC841576), gemcitabine (NSC613327), inavolisib (NSC800729), ipatasertib (NSC767898), KB-0742 (NSC834161), MRTX-1133 (NSC836407), osimertinib (NSC779217), RMC-4630 (NSC839698), RMC-6236 (NSC851965), RMC-6291 (NSC852671), Ro-3306 (NSC812927), sapanisertib (NSC764658), SN-38 (NSC673596), staurosporine (NSC755774), SY5609 (NSC837396), and tovorafenib (DAY101, NSC766906), were obtained from the National Cancer Institute (NCI) Developmental Therapeutics Program Chemical Repository. The FDA-approved anticancer drug set is available from the NCI Developmental Therapeutics Program. […] The stock solutions were prepared in dimethyl sulfoxide (DMSO, Sigma-Aldrich, St. Louis, MO, cat. D2650) at 800-fold the tested concentration and stored at -70 degrees C prior to their use. All drugs and investigational agents were tested over a range starting from a high concentration at or near the clinical Cmax and decreasing in half-log increments. If the clinical Cmax for an agent had not been determined, the highest concentration tested was 10 microM.
Cell Culture. All cells were maintained in an incubator at 37 degrees C and 5% CO2 with 95% humidity. The PDC lines were cultured according to standard operating procedures established by the NCI PDMR. All PDCs were thawed and cultured in Matrigel-coated flasks prepared with a working solution of 1X Ham's F-12 nutrient mix, without supplementation (Invitrogen, Waltham, MA, cat. 11765054), 100 U/mL penicillin-streptomycin (Invitrogen, cat. 15140122), and 2.5% Matrigel (Corning Inc., Corning, NY, cat. 354248) for the first three passages. The 362531-283-R-J2-PDC and 782815-120-R-J1-PDC lines were cultured in 6C/Colon 1B media, which includes advanced DMEM/F-12 (Thermo Fisher Scientific, cat. 12634028), 10 mM HEPES (Thermo Fisher Scientific, cat. 15630080), 1X GlutaMAX supplement (Thermo Fisher Scientific, cat. 35050061), 0.1 mg/mL primocin (InvivoGen, San Diego, CA, cat. ant-pm-2), 10% defined fetal bovine serum, heat inactivated (HyClone Laboratories Inc., Logan, UT, cat. SH30070.03HI), 50% L-WRN conditioned media (ATCC, cat. CRL-3276), 1.25 mM N-Acetyl-L-cysteine (Sigma-Aldrich, cat. A9165), 10 mM nicotinamide (Sigma-Aldrich, cat. N0636), 1X B-27 supplement (Thermo Fisher Scientific, cat. 17504044), 1X N-2 supplement (Thermo Fisher Scientific, cat. 17502048), 50 ng/mL human EGF (Thermo Fisher Scientific, cat. PHG0311), and 10 microM Y-27632 dihydrochloride (Tocris Bioscience, cat. 1254). The K12877-001-R-J1-PDC line was cultured in 6I media, which includes all 6C/Colon 1B media plus 10 ng/mL human FGF-10 (PeproTech, cat. 100-26), 1 ng/mL human FGF-2 (PeproTech, cat. 100-18B), 1 µM prostaglandin E2 (Tocris Bioscience, cat. 2296), […] hydrocortisone (Sigma-Aldrich, cat. H4001), and […] bovine insulin (Sigma-Aldrich, cat. I6634). The K86415-001-R-J1-PDC line was cultured in 6D media, which includes all 6C/Colon 1B media components minus the L-WRN conditioned media. The 485176-168-R4-J1-PDC was cultured in PANC media, which includes all 6C/Colon 1B media plus 100 ng/mL human FGF-10 (PeproTech, cat. 100-26), 500 nM SB-431542 (Selleckchem, cat. S1067), and 10 nM gastrin (Tocris Bioscience, cat. 3006). […]
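Note: spheroids exposed to compounds for 7 days.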
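Throughout, for viability, T/C: 100% = DMSO vehicle control viability.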

## CCN1CCN(Cc2ccc(Nc3ncc(F)c(-c4cc(F)c5nc(C)n(C(C)C)c5c4)n3)nc2)CC1 + CCn1c(-c2cc(N3CCN(C)CC3)cnc2C(C)OC)c2c3cc(ccc31)-c1csc(n1)CC(NC(=O)C1CC1C)C(=O)N1CCCC(N1)C(=O)OCC(C)(C)C2
Second compound 0.000949 µM
  IC50: < 3.16 nM
Second compound 0.003 µM
  IC50: < 3.16 nM
Second compound 0.00949 µM
  IC50: < 3.16 nM
Second compound 0.03 µM
  IC50: < 3.16 nM
Second compound 0.0949 µM
  IC50: < 3.16 nM
Second compound 0.3 µM
  IC50: < 3.16 nM
Second compound 0.000949 µM, first compound 0.00316 µM
  viability, T/C: 34.5%
Second compound 0.000949 µM, first compound 0.01 µM
  viability, T/C: 29.8%
Second compound 0.000949 µM, first compound 0.0316 µM
  viability, T/C: 26.8%
Second compound 0.000949 µM, first compound 0.1 µM
  viability, T/C: 29.4%
Second compound 0.000949 µM, first compound 0.316 µM
  viability, T/C: 29.5%
Second compound 0.000949 µM, first compound 1 µM
  viability, T/C: 43.6%
Second compound 0.003 µM, first compound 0.00316 µM
  viability, T/C: 25.6%
Second compound 0.003 µM, first compound 0.01 µM
  viability, T/C: 21.5%
Second compound 0.003 µM, first compound 0.0316 µM
  viability, T/C: 21.9%
Second compound 0.003 µM, first compound 0.1 µM
  viability, T/C: 22.6%
Second compound 0.003 µM, first compound 0.316 µM
  viability, T/C: 25%
Second compound 0.003 µM, first compound 1 µM
  viability, T/C: 34.7%
Second compound 0.00949 µM, first compound 0.00316 µM
  viability, T/C: 18.7%
Second compound 0.00949 µM, first compound 0.01 µM
  viability, T/C: 17.4%
Second compound 0.00949 µM, first compound 0.0316 µM
  viability, T/C: 18.3%
Second compound 0.00949 µM, first compound 0.1 µM
  viability, T/C: 16.3%
Second compound 0.00949 µM, first compound 0.316 µM
  viability, T/C: 23.1%
Second compound 0.00949 µM, first compound 1 µM
  viability, T/C: 28.6%
Second compound 0.03 µM, first compound 0.00316 µM
  viability, T/C: 18.9%
Second compound 0.03 µM, first compound 0.01 µM
  viability, T/C: 22.9%
Second compound 0.03 µM, first compound 0.0316 µM
  viability, T/C: 17.6%
Second compound 0.03 µM, first compound 0.1 µM
  viability, T/C: 17.3%
Second compound 0.03 µM, first compound 0.316 µM
  viability, T/C: 21.8%
Second compound 0.03 µM, first compound 1 µM
  viability, T/C: 31.1%
Second compound 0.0949 µM, first compound 0.00316 µM
  viability, T/C: 19.7%
Second compound 0.0949 µM, first compound 0.01 µM
  viability, T/C: 18.4%
Second compound 0.0949 µM, first compound 0.0316 µM
  viability, T/C: 18.8%
Second compound 0.0949 µM, first compound 0.1 µM
  viability, T/C: 17.9%
Second compound 0.0949 µM, first compound 0.316 µM
  viability, T/C: 24.5%
Second compound 0.0949 µM, first compound 1 µM
  viability, T/C: 31.4%
Second compound 0.3 µM, first compound 0.00316 µM
  viability, T/C: 17.9%
Second compound 0.3 µM, first compound 0.01 µM
  viability, T/C: 19.8%
Second compound 0.3 µM, first compound 0.0316 µM
  viability, T/C: 20.9%
Second compound 0.3 µM, first compound 0.1 µM
  viability, T/C: 19.1%
Second compound 0.3 µM, first compound 0.316 µM
  viability, T/C: 25.9%
Second compound 0.3 µM, first compound 1 µM
  viability, T/C: 33.5%
